Assay results as given in patent US10150740B2, “6,7-dihydropyrido[2,1-A]phthalazin-2-ones for the treatment and prophylaxis of hepatitis B virus infection” (priority 2015, dated 2018).
Counter-ions that a name gives are not always drawn.

test system: HBsAg; assay: cells; details: Hepatitis B virus, HepG2.2.15, read-out: IC50 (HBsAg secretion)
Procedure: HepG2.2.15 cells (Acs et al. Proc Natl Acad Sci USA, 84, (1987), 4641-4), a constitutively HBV-expressing cell line were cultured in DMEM+Glutamax-I medium (Invitrogen, Carlsbad, Calif., USA), supplemented with 10% fetal bovine serum (Invitrogen) and G418 (Invitrogen) at a final concentration of 200 mg/L and maintained in 5% CO2 at 37° C.
HepG2.2.15 cells were seeded in duplicate into white, 96-well plates at 1.5×10^4 cells/well. The cells were treated with a three-fold serial dilution series of the compounds in DMSO. The final DMSO concentration in all wells was 1% and DMSO was used as no drug control.
The HBsAg chemiluminescence immunoassay (CLIA) kit (Autobio Diagnostics Co., Zhengzhou, China, Catalog number: CL0310-2) was used to measure the levels of secreted HBV antigens semi-quantitatively. For the detection 50 μL/well culture supernatant was used and HBsAg was quantified using HBsAg chemiluminescence immunoassay (CLIA) kit (Autobio Diagnostics Co., Zhengzhou, China, Catalog number: CL0310-2), 50 μL of the supernatant was transferred to the CLIA assay plate and 50 μL of enzyme conjugate reagent was added into each well. The plates were sealed and gently agitated for 1 hour at room temperature. The supernatant-enzyme-mixture was discarded and wells were washed 6 times with 300 μL of PBS. The residual liquid was removed by plating the CLIA plate right side down on absorbent tissue paper. 25 μL of substrates A and B were added to each well. Luminance was measured using a luminometer (Mithras LB 940 Multimode Microplate Reader) after 10 minutes incubation. Dose-response curves were generated and the IC50 value was extrapolated by using the E-WorkBook Suite (ID Business Solutions Ltd., Guildford, UK). The IC50 was defined as the compound concentration (or conditioned media log dilution) at which HBsAg secretion was reduced by 50% compared to the no drug control.

Point of comparison: `COCCCOc1cc2c(cc1OC)-c1cc(=O)c(C(=O)O)cn1N(CC(C)C)C2` [Example 6, 6-Isobutyl-10-methoxy-9-(3-methoxypropoxy)-2-oxo-7H-pyrido[2,1-a]phthalazine-3-carboxylic acid], IC50 53 nM. Against it:
- COc1cc2c(cc1OC)-c1cc(=O)c(C(=O)O)cn1NC2 [Example 1, 9,10-Dimethoxy-2-oxo-6,7-dihydropyrido[2,1-a]phthalazine-3-carboxylic acid] — 350-fold higher, 18700 nM
- COc1cc2c(cc1OC)-c1cc(=O)c(C(=O)O)cn1N(C)C2 [Example 2, 9,10-Dimethoxy-6-methyl-2-oxo-7H-pyrido[2,1-a]phthalazine-3-carboxylic acid] — 48-fold higher, 2530 nM
- C=CCN1Cc2cc(OC)c(OC)cc2-c2cc(=O)c(C(=O)O)cn21 [Example 3, 6-Allyl-9,10-dimethoxy-2-oxo-7H-pyrido[2,1-a]phthalazine-3-carboxylic acid] — 14-fold higher, 740 nM
- COc1cc2c(cc1OC)-c1cc(=O)c(C(=O)O)cn1N(C(C)C)C2 [Example 4, 6-Isopropyl-9,10-dimethoxy-2-oxo-7H-pyrido[2,1-a]phthalazine-3-carboxylic acid] — 490-fold higher, 26100 nM
- COc1cc2c(cc1OC)-c1cc(=O)c(C(=O)O)cn1N(CC(C)C)C2 [Example 5, 6-Isobutyl-9,10-dimethoxy-2-oxo-7H-pyrido[2,1-a]phthalazine-3-carboxylic acid] — 4.7-fold higher, 248 nM
- COc1cc2c(cc1OCC(F)(F)F)CN(CC(C)C)n1cc(C(=O)O)c(=O)cc1-2 [Example 7, 6-Isobutyl-10-methoxy-2-oxo-9-(2,2,2-trifluoroethoxy)-7H-pyrido[2,1-a]phthalazine-3-carboxylic acid] — 3.2-fold higher, 172 nM
- COc1cc2c(cc1OCC1CCOCC1)CN(CC(C)C)n1cc(C(=O)O)c(=O)cc1-2 [Example 8, 6-Isobutyl-10-methoxy-2-oxo-9-(tetrahydropyran-4-ylmethoxy)-7H-pyrido[2,1-a]phthalazine-3-carboxylic acid] — within 1.5-fold, 44 nM
- COc1cc2c(cc1OCCCS(C)(=O)=O)CN(CC(C)C)n1cc(C(=O)O)c(=O)cc1-2 [Example 9, 6-Isobutyl-10-methoxy-9-(3-methylsulfonylpropoxy)-2-oxo-7H-pyrido[2,1-a]phthalazine-3-carboxylic acid] — 12-fold higher, 624 nM
- COc1cc2c(cc1OCCN1CCOCC1)CN(CC(C)C)n1cc(C(=O)O)c(=O)cc1-2 [Example 10, 6-Isobutyl-10-methoxy-9-(2-morpholinoethoxy)-2-oxo-7H-pyrido[2,1-a]phthalazine-3-carboxylic acid] — 4.2-fold higher, 225 nM
- COc1cc2c(cc1OCC(C)(C)CO)CN(CC(C)C)n1cc(C(=O)O)c(=O)cc1-2 [Example 11, 9-(3-Hydroxy-2,2-dimethyl-propoxy)-6-isobutyl-10-methoxy-2-oxo-7H-pyrido[2,1-a]phthalazine-3-carboxylic acid] — within 1.5-fold, 39 nM
- COc1cc2c(cc1OCCCCC(=O)O)CN(CC(C)C)n1cc(C(=O)O)c(=O)cc1-2 [Example 12, 9-(4-Carboxybutoxy)-6-isobutyl-10-methoxy-2-oxo-7H-pyrido[2,1-a]phthalazine-3-carboxylic acid] — 180-fold higher, 9430 nM
- COc1cc2c(cc1OCCCC#N)CN(CC(C)C)n1cc(C(=O)O)c(=O)cc1-2 [Example 13, 9-(3-Cyanopropoxy)-6-isobutyl-10-methoxy-2-oxo-7H-pyrido[2,1-a]phthalazine-3-carboxylic acid] — 2.1-fold higher, 110 nM
- COc1cc2c(cc1OCCCCCNC(=O)OC(C)(C)C)CN(CC(C)C)n1cc(C(=O)O)c(=O)cc1-2 [Example 14, 9-[5-(Tert-butoxycarbonylamino)pentoxy]-6-isobutyl-10-methoxy-2-oxo-7H-pyrido[2,1-a]phthalazine-3-carboxylic acid] — within 1.5-fold, 47 nM
- COc1cc2c(cc1OCCCCCN)CN(CC(C)C)n1cc(C(=O)O)c(=O)cc1-2 [Example 15, 9-(5-Aminopentoxy)-6-isobutyl-10-methoxy-2-oxo-7H-pyrido[2,1-a]phthalazine-3-carboxylic acid hydrochloride] — 9.4-fold higher, 500 nM
